ChEMBL document CHEMBL4196246, “Preussins with Inhibition of IL-6 Expression from Aspergillus flocculosus 16D-1, a Fungus Isolated from the Marine Sponge Phakellia fusca” (J Nat Prod, 2018)

Tests used:
THP-1 [1] = assay: Immunosuppressive activity in PMA-differentiated human THP1 cells assessed as inhibition of LPS-stimulated IL-6 production by flow cytometry; format: functional, cell-based
Candida albicans = assay: Antifungal activity against Monilia albicans ATCC 10231 measured after 24 hrs by broth macrodilution method; format: functional; settings: ATCC 10231, 24 h
[2] = test system: Trichophyton mentagrophytes; assay: Antifungal activity against Trichophyton mentagrophytes ATCC 4439 by broth macrodilution method; format: functional
Trichophyton rubrum = assay: Antifungal activity against Trichophyton rubrum ATCC 4438 measured after 4 to 7 days by broth macrodilution method; format: functional
THP-1 [3] = assay: Cytotoxicity against human THP1 cells after 72 hrs by CCK8 assay; format: functional, cell-based; settings: THP-1, 72 h
A549 = assay: Cytotoxicity against human A549 cells after 72 hrs by CCK8 assay; format: functional, cell-based; settings: A549, 72 h
HepG2 = assay: Cytotoxicity against human HepG2 cells after 72 hrs by CCK8 assay; format: functional, cell-based; settings: HepG2, 72 h

IC50 (THP-1 [1]) [µM]	MIC (Candida albicans) [µg/mL]	MIC [2] [µg/mL]	MIC (Trichophyton rubrum) [µg/mL]	Structure (SMILES)	IC50 (THP-1 [3]) [µM]	IC50 (A549) [µM]	IC50 (HepG2) [µM]
8.2	> 50	> 50	> 50	CN1[C@H](CCCCCC(=O)O)C[C@H](O)[C@@H]1Cc1ccccc1	> 20	> 20	> 20
9.9	> 50	> 50	> 50	CN1[C@H](CCCCCCC(=O)O)C[C@H](O)[C@@H]1Cc1ccccc1	> 20	> 20	> 20
0.67				CC(C)=CCC/C(C)=C/Cc1cc(-c2coc3cc(O)ccc3c2=O)ccc1O			
21	> 50	> 50	> 50	CN1[C@H](CCC(=O)O)C[C@H](O)[C@@H]1Cc1ccccc1	> 20	> 20	> 20
22	> 50	> 50	> 50	CN1[C@H](CCCCC(=O)O)C[C@H](O)[C@@H]1Cc1ccccc1	> 20	> 20	> 20
0.19	> 50	> 50	> 50	CC[C@@H](O)CCCCCC[C@@H]1C[C@H](O)[C@H](Cc2ccccc2)N1C	> 20	> 20	> 20
14	> 50	> 50	> 50	C[C@@H](O)CCCCCCC[C@@H]1C[C@H](O)[C@H](Cc2ccccc2)N1C	> 20	> 20	> 20
0.11	> 50	> 50	> 50	CN1[C@H](CCCCCCCCC(=O)O)C[C@H](O)[C@@H]1Cc1ccccc1	> 20	> 20	> 20
16	> 50	> 50	> 50	CCCC(O)CCCCC[C@@H]1C[C@H](O)[C@H](Cc2ccccc2)N1C (mixture of isomers)	> 20	> 20	> 20

Structure (SMILES)	IC50 (THP-1 [1]) [µM]	MIC (Candida albicans) [µg/mL]	MIC [2] [µg/mL]	MIC (Trichophyton rubrum) [µg/mL]	IC50 (THP-1 [3]) [µM]	IC50 (A549) [µM]	IC50 (HepG2) [µM]
CC(O)CCCCC[C@@H]1C[C@H](O)[C@H](Cc2ccccc2)N1C (mixture of isomers)	2.3	> 50	> 50	> 50	> 20	> 20	> 20
